Experimental findings from patent publication US5869469A, “Phosphonocarboxylate compounds for treating amyloidosis” (Queen's University at Kingston, priority 1997, dated 1999) are described below.

Counter-ions that a name gives are not always drawn.

One series has as its system Aβ peptide. The series can be described thus: in vitro circular dichroism (CD) assay of β-sheet secondary structure formation. As to conditions: Aβ peptide with test compound in Tris-HCl buffer pH 7, incubated 0 or 24 hours at 37° C., CD at 25° C. An excerpt: It is known that amyloidogenic peptides or proteins which have formed amyloid deposits or plaques have a significant amount of β-sheet secondary structure, while the unaggregated peptide or protein generally has less β-sheet structure. It is believed that the ability of a candidate therapeutic compound to prevent the formation of β-sheet secondary structure in vitro may be correlated with the ability of the compound to inhibit amyloidogenesis in vivo. Accordingly, phosphonate compounds were assayed for ability to prevent the formation of β-sheet secondary structure in an in vitro circular dichroism (CD) assay.
Aβ is a 40 amino acid protein associated with Alzheimer's disease. Aβ peptide was prepared and purified as described in Fraser, P. E. et al., Biochemistry 31, 10716 (1992). Briefly, the peptide was synthesized by standard solid-phase techniques and purified by HPLC according to well known procedures.
All CD experiments were performed on a commercially available instrument. The cell was maintained at 25° C. using a circulating water bath. Computer-averaging of traces was performed to improve signal-to-noise ratios. The solvent signal was subtracted. CD experiments were performed for each test compound according to the following procedure:
A stock solution of purified peptide was made by dissolving the peptide in phosphate-buffered saline (PBS) to a concentration of 2 mg/ml. […]

The next series relates to amyloid peptide. The experiment in a line: amyloid peptide solubility assay (overnight incubation, centrifugation, soluble peptide determination). As to conditions: compound and amyloid peptide incubated together overnight, then centrifugation; preliminary result.
Series [1] has as its system cortical/hippocampal neuronal cultures. The experiment in a line: neurotoxicity in cortical/hippocampal neuronal cultures. The series is classed as cell-based. The note with it: concentrations ranging from 10^-7 M to 10^-4 M.

Turning to `O=C(O)CCOCCP(=O)(O)O` [2-carboxyethoxyethylphosphonic acid], the “β-sheet formation (minimum at 218 nm in CD spectrum versus control)” value in the series with Aβ peptide is recorded as “did not appear to prevent β-pleated sheet formation”.

Regarding `O=C(O)P(=O)(O)O` [Phosphonoformate sodium salt, Trisodium phosphonoformate], in the series with amyloid peptide, the “effect on amyloid peptide solubility (amount of soluble peptide)” value is “little effect on amyloid peptide solubility”. For the same compound, in the series with Aβ peptide, the “β-sheet formation (minimum at 218 nm in CD spectrum versus control)” value is “significantly and reproducibly reduce the amount of β-sheet formation”. Moreover, the neurotoxicity result in series [1] was “no significant toxicity”.
